Test results as given in US12357596B2, “Compounds for prevention and treatment of obesity and related disorders” (ABREXA PHARMACEUTICALS, INC., priority 2019, dated 2025).
Marks after values point to notes of the source that are not given here.

Key:
[1] = Toxicokinetics in satellite animals of the 28-day oral gavage study (plasma, Day 1); type: in vivo, Sprague-Dawley rats; conditions: Sprague-Dawley, rat, Day 1, 30 mg/kg/day (NOAEL), for information only (ISR failed)
Method: J147 or vehicle was administered once daily to Sprague-Dawley rats via oral gavage for 28 consecutive days at a daily dose of 0, 30, 100 or 300 mg/kg. J174 was prepared in a vehicle formulation comprising 5% ethanol, 5% DMSO and 90% corn oil (v/v/v). Certified rodent diet and water was available ad libitum. Groups 1-4 contained 10 animals/sex/group. Groups 1 (control) and 4 (high dose) also included an additional 5 animals/sex/group for use as recovery animals. The recovery animals were maintained on study for a 14-day postdosing recovery period. Animals in Groups 1-4 were monitored for morbidity and mortality, clinical signs, detailed clinical observations, body weight, food consumption, ophthalmologic parameters, neurobehavioral assessment consisting of a Functional Observational Battery (FOB) and a motor activity test, hematology, coagulation, serum chemistry, and urinalysis parameters. Postmortem assessment included necropsy, measurement of selected organ weights, and microscopic evaluation of a standard set of tissues. Plasma samples for bioanalysis were collected on Days 1 and 28 from satellite toxicokinetic animals in Groups 5 through 8. Animals in these groups were euthanized following the last blood sampling and carcasses were discarded without examination. The study protocol is shown below in Table 1.
Additionally, analysis of Day 28 samples also occurred outside the known long-term stability (LTS) range of the validated bioanalytical method. Thus, the bioanalytical and toxicokinetic results for J147 are considered to be for information only. The bioanalytical and toxicokinetic analysis results should also be considered in light of the fact that Day 28 samples were analyzed outside of their LTS.
Given that there was clear evidence of toxicity at the mid and high dose groups, the Study Director believes that this study met the objective of examining the toxicity profile of J147. […] Under the conditions of this study, the no-observed-adverse-effect-level (NOAEL) for J147 was considered to be 30 mg/kg/day. […] Cmax and AUC0-last values should be considered in light of the caveats mentioned in the preceding paragraph. The lowest-observed-adverse-effect-level (LOAEL) is 100 mg/kg/day in both sexes based on test article-related decreases in body weight/body weight gain and food consumption, decreased activity, decreases in measures of red blood cell mass, decreased prothrombin time, decreased serum glucose and triglycerides, decreased thymus weights, and single cell necrosis of pancreatic acinar cells in males.

[2] = 28-Day Oral (Gavage) Toxicity Study in Beagle Dogs with a 14-Day Recovery Period at 0, 1, 10 and 30 mg/kg/day (body weight); type: in vivo
Method: J147 was administered once daily to beagle dogs via oral gavage for up to 28 days at a daily dose of 0, 1, 10 and 30 mg/kg. J174 was prepared in a vehicle formulation comprising 5% ethanol, 5% DMSO and 90% corn oil (v/v/v). Block Lab Diet (Certified Canine Diet #5007, PMI Nutrition International, Inc.) was offered via limited feedings, except during designated periods. The animals were offered food 2 hours postdose on each dosing day for 2 to 5 hours. Food was offered 2 to 5 hours/day during the acclimation period and during the recovery period. Tap water was available ad libitum via an automatic watering system. The study protocol is shown below in Table 10.

COc1cccc(/C=N/N(C(=O)C(F)(F)F)c2ccc(C)cc2C)c1 [J147]
AUC(0-t) ([1]; female rats): 233 ng·h/mL
Cmax ([1]; female rats): 50.8 ng/mL
AUC(0-t) ([1]; male rats): 835 ng·h/mL
Cmax ([1]; male rats): 146 ng/mL
Conclusion on body weight ([2]; dogs, 28-day oral gavage): induces weight loss and inhibits weight gain
Body weight and food consumption finding ([2]; dogs, Groups 3 and 4, 10 mg/kg/day and 30 mg/kg/day): Body weight loss with lower food consumption
Weight lost compared to pre-test levels (up to) ([2]; dogs, males and females, 10 mg/kg/day): up to −9%
Body Weight, Mean ([2]; female dogs, 1 mg/kg/day, Day 3): 6.463 kg
Body Weight, Mean ([2]; female dogs, 1 mg/kg/day, Day 7): 6.513 kg
Body Weight, Mean ([2]; female dogs, 1 mg/kg/day, Day 10): 6.675 kg
Body Weight, Mean ([2]; female dogs, 1 mg/kg/day, Day 14): 6.688 kg
Body Weight, Mean ([2]; female dogs, 1 mg/kg/day, Day 17): 6.763 kg
Body Weight, Mean ([2]; female dogs, 1 mg/kg/day, Day 21): 6.788 kg
Body Weight, Mean ([2]; female dogs, 1 mg/kg/day, Day 24): 6.813 kg
Body Weight, Mean ([2]; female dogs, 1 mg/kg/day, Day 28): 6.813 kg
Body Weight, Mean ([2]; female dogs, 1 mg/kg/day, Day −1 (pre-dose)): 6.413 kg
Animals that lost weight ([2]; female dogs, 10 mg/kg/day): 4 of 4
Body Weight, Mean ([2]; female dogs, 10 mg/kg/day, Day 3): 6.363 kg
Body Weight, Mean ([2]; female dogs, 10 mg/kg/day, Day 7): 6.250 kg
Body Weight, Mean ([2]; female dogs, 10 mg/kg/day, Day 10): 6.275 kg
Body Weight, Mean ([2]; female dogs, 10 mg/kg/day, Day 14): 6.150 kg
Body Weight, Mean ([2]; female dogs, 10 mg/kg/day, Day 17): 6.163 kg
Body Weight, Mean ([2]; female dogs, 10 mg/kg/day, Day 21): 6.063 kg
Body Weight, Mean ([2]; female dogs, 10 mg/kg/day, Day 24): 6.038 kg
Body Weight, Mean ([2]; female dogs, 10 mg/kg/day, Day 28): 5.988 kg
Body Weight, Mean ([2]; female dogs, 10 mg/kg/day, Day −1 (pre-dose)): 6.325 kg
Animals that lost weight ([2]; female dogs, 30 mg/kg/day): 6 of 6
Weight lost, of pretest levels (up to) ([2]; female dogs, 30 mg/kg/day): ≤ −17%
Body Weight, Mean ([2]; female dogs, 30 mg/kg/day, Day 3): 6.308 kg
Body Weight, Mean ([2]; female dogs, 30 mg/kg/day, Day 7): 6.242 kg
Body Weight, Mean ([2]; female dogs, 30 mg/kg/day, Day 10): 6.192 kg
Body Weight, Mean ([2]; female dogs, 30 mg/kg/day, Day 14): 6.033 kg
Body Weight, Mean ([2]; female dogs, 30 mg/kg/day, Day 17): 5.858^a kg
Body Weight, Mean ([2]; female dogs, 30 mg/kg/day, Day 21): 5.700^b kg
Body Weight, Mean ([2]; female dogs, 30 mg/kg/day, Day 24): 5.575^b kg
Body Weight, Mean ([2]; female dogs, 30 mg/kg/day, Day 28): 5.525^b kg
Body Weight, Mean ([2]; female dogs, 30 mg/kg/day, Day −1 (pre-dose)): 6.258 kg
Body Weight, Mean ([2]; male dogs, 1 mg/kg/day, Day 3): 7.850 kg
Body Weight, Mean ([2]; male dogs, 1 mg/kg/day, Day 7): 7.838 kg
Body Weight, Mean ([2]; male dogs, 1 mg/kg/day, Day 10): 8.000 kg
Body Weight, Mean ([2]; male dogs, 1 mg/kg/day, Day 14): 8.000 kg
Body Weight, Mean ([2]; male dogs, 1 mg/kg/day, Day 17): 8.075 kg
Body Weight, Mean ([2]; male dogs, 1 mg/kg/day, Day 21): 8.200 kg
Body Weight, Mean ([2]; male dogs, 1 mg/kg/day, Day 24): 8.325 kg
Body Weight, Mean ([2]; male dogs, 1 mg/kg/day, Day 28): 8.250 kg
Body Weight, Mean ([2]; male dogs, 1 mg/kg/day, Day −1 (pre-dose)): 7.813 kg
Animals that lost weight ([2]; male dogs, 10 mg/kg/day): 3 of 4
Body Weight, Mean ([2]; male dogs, 10 mg/kg/day, Day 3): 7.588 kg
Body Weight, Mean ([2]; male dogs, 10 mg/kg/day, Day 7): 7.675 kg
Body Weight, Mean ([2]; male dogs, 10 mg/kg/day, Day 10): 7.763 kg
Body Weight, Mean ([2]; male dogs, 10 mg/kg/day, Day 14): 7.625 kg
Body Weight, Mean ([2]; male dogs, 10 mg/kg/day, Day 17): 7.563 kg
Body Weight, Mean ([2]; male dogs, 10 mg/kg/day, Day 21): 7.663 kg
Body Weight, Mean ([2]; male dogs, 10 mg/kg/day, Day 24): 7.638 kg
Body Weight, Mean ([2]; male dogs, 10 mg/kg/day, Day 28): 7.500 kg
Body Weight, Mean ([2]; male dogs, 10 mg/kg/day, Day −1 (pre-dose)): 7.563 kg
Animals that lost weight ([2]; male dogs, 30 mg/kg/day): 5 of 6
Weight lost, of pretest levels (up to) ([2]; male dogs, 30 mg/kg/day): up to −12%
Body Weight, Mean ([2]; male dogs, 30 mg/kg/day, Day 3): 7.900 kg
Body Weight, Mean ([2]; male dogs, 30 mg/kg/day, Day 7): 7.933 kg
Body Weight, Mean ([2]; male dogs, 30 mg/kg/day, Day 10): 8.008 kg
Body Weight, Mean ([2]; male dogs, 30 mg/kg/day, Day 14): 7.967 kg
Body Weight, Mean ([2]; male dogs, 30 mg/kg/day, Day 17): 7.883 kg
Body Weight, Mean ([2]; male dogs, 30 mg/kg/day, Day 21): 7.800 kg
Body Weight, Mean ([2]; male dogs, 30 mg/kg/day, Day 24): 7.825 kg
Body Weight, Mean ([2]; male dogs, 30 mg/kg/day, Day 28): 7.600 kg
Body Weight, Mean ([2]; male dogs, 30 mg/kg/day, Day −1 (pre-dose)): 7.908 kg
